Read-outs that look alike come from different tables or passages of the source.
Tests used:
S. cerevisiae MN8140X = settings: 100 mM of acetic acid
Excerpt: A medium formed of 10 g/L of a yeast extract, 20 g/L of polypeptone, 80 g/L of glucose, and 60 g/L of xylose was used as the solution using glucose and xylose as carbon sources.

[1] = test system: ΔPHO13 strain (S. cerevisiae BY4741X with PHO13 deleted); assay type: cell-based; settings: for amount of production of ethanol: 80 g/L xylose
Excerpt: (§1) A solution obtained by incorporating 80 g/L of xylose into a YP medium (containing 1% of a yeast extract, 2% of peptone, and 0.5% of […]) was used as a material using xylose as a carbon source. […]

BY4741X strain (control) = experiment: Fermentation with xylose as carbon source by the control strain in the presence of a fermentation inhibitor; assay type: cell-based, S. cerevisiae; settings: 72 hours
Excerpt: as §1

[2] = 60 mM of acetic acid, after 24 hours
[3] = 60 mM of acetic acid, after 72 hours
[4] = 30 mM of formic acid, after 24 hours
[5] = 30 mM of formic acid, after 72 hours
[6] = 60 mM of furfural versus no furfural, 72 hours
[7] = 90 mM of furfural, after 24 hours
[8] = 90 mM of furfural, after 72 hours

## CC(=O)O [acetic acid]
S. cerevisiae MN8140X
  action in ethanol production by the yeast: showed a fermentation inhibitory action
S. cerevisiae MN8140X; fermentation 48 hours, 30° C.
  amount of production of ethanol: also suppressed
  consumption of glucose as a carbon source: suppressed
[1]
  resistance of the strain to the fermentation inhibitor in ethanol production using xylose as a carbon source: resistant
[1]; [2]
  amount of production of ethanol relative to control (BY4741X strain): 2.3 times
  amount of production of ethanol: 13 g/L
[1]; [3]
  amount of production of ethanol relative to control (BY4741X strain): 1.4 times
  amount of production of ethanol: 20 g/L
[1]; acetic acid 0, 30 and 60 mM, 72 hours
  consumption rate of xylose: reduced depending on an acetic acid concentration
BY4741X strain (control); acetic acid 0, 30 and 60 mM
  consumption rate of xylose: reduced depending on an acetic acid concentration

## O=CO [formic acid]
[1]
  resistance of the strain to the fermentation inhibitor in ethanol production using xylose as a carbon source: resistant
[1]; [4]
  amount of production of ethanol relative to control (BY4741X strain): 4.1 times
  amount of production of ethanol: 6 g/L
[1]; [5]
  amount of production of ethanol relative to control (BY4741X strain): 5.5 times
  amount of production of ethanol: 11 g/L
[1]; formic acid 0, 15 and 30 mM, 72 hours
  xylose consumption and ethanol production versus inhibitor concentration: a tendency similar to that in the case of acetic acid was observed

## O=Cc1ccco1 [furfural]
[1]
  resistance of the strain to the fermentation inhibitor in ethanol production using xylose as a carbon source: resistant
[1]; [6]
  consumption rate of xylose: substantially the same as that in the case where furfural was not incorporated
  ethanol-producing ability: effective ethanol production was similarly observed
[1]; [7]
  amount of production of ethanol relative to control (BY4741X strain): 27.5 times
  amount of production of ethanol: 21 g/L
[1]; [8]
  amount of production of ethanol relative to control (BY4741X strain): 5.5 times
  amount of production of ethanol: 31 g/L
BY4741X strain (control); furfural 60 and 90 mM versus 0 mM
  consumption rate of xylose: reduced
